The values that follow come from PMC3874184 (Nucleic Acids Research, 2013).

In assay [1] the target is spTrm10 (spTrm10_FL) (Schizosaccharomyces pombe, UniProt O14214, N209A). In words: biochemical.
The target in assay [2] is T1, spTrm10 (spTrm10_FL) (Schizosaccharomyces pombe, UniProt O14214).
T1 sequence (O14214 1-304): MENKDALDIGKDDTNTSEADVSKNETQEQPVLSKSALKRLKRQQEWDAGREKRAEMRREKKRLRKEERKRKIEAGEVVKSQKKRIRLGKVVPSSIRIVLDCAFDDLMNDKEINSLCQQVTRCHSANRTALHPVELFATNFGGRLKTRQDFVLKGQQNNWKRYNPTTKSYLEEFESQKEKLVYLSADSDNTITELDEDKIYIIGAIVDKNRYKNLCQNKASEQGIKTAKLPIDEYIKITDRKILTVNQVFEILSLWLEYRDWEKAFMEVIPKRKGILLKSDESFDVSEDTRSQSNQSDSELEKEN
The assay is described as follows: biochemical.

The target in the next assay is T2, scTrm10_84 (Saccharomyces cerevisiae, UniProt Q12400).
T2 sequence (Q12400 84-276): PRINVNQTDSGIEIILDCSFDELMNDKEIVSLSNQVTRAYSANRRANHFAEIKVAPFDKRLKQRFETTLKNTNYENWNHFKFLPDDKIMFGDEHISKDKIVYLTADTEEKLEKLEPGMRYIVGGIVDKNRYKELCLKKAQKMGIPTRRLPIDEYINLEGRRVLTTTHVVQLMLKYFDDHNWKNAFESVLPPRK
In words: X-ray crystal structure, […] Å. The settings on record: SAM-binding pocket in C-terminal trefoil knot; 1:3 protein:SAH.

Assay [3] has as its target T1, spTrm10 (spTrm10_FL). The assay is described as follows: X-ray crystal structure, […] Å. Conditions: SAM-binding pocket in C-terminal trefoil knot; 1:3 protein:SAH.

SMILES strings stand for the structures.

Usually Kd stands for the equilibrium constant for the complex coming apart. A high value points to lower affinity.

spTrm10 (spTrm10_FL) (Schizosaccharomyces pombe, UniProt O14214, N209A), sequence (O14214 whole entry N209A): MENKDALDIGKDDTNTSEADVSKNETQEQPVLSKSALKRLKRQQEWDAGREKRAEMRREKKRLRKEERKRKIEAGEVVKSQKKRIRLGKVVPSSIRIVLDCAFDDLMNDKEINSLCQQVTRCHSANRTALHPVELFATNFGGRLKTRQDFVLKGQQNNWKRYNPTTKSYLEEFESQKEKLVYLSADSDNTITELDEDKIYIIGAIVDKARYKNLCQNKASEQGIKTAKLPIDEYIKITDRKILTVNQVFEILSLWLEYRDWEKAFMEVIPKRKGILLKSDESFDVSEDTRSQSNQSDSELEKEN

`C[S+](CC[C@H](N)C(=O)O)C[C@H]1O[C@@H](n2cnc3c(N)ncnc32)[C@H](O)[C@@H]1O` (stereo partly shown) [SAM]: the Kd at spTrm10 (spTrm10_FL) [1] was determined as 83.3 µM; at spTrm10 (spTrm10_FL) [2], 4.46 µM.

For the molecule `Nc1ncnc2c1ncn2[C@@H]1O[C@H](CSCC[C@H](N)C(=O)O)[C@@H](O)[C@H]1O` [SAH], the “X-ray crystal structure, 1.76 Å” value on scTrm10_84 was determined as 4JWJ for scTrm10_84-SAH. Besides, the “X-ray crystal structure, 2.04 Å” value on spTrm10 (spTrm10_FL) [3] amounted to 4JWH for spTrm10-FL-SAH.
